Values of other authors, collected in US20060136023A1 (priority 2004, published 2006).

Columns and labels:
shivering threshold = settings: in vivo
clots [1] = settings: clots treated with plasminogen (2 mg) and SK (100 IU) in 15 ml PBS; clot temperature raised from 24° C. to 37° C.
Plasminogen [2] = target: T1, Plasminogen (Homo sapiens, UniProt P00747)
clots [3] = settings: tPA 0.3, 1.0 and 3.0 μg/ml; incubated from 24° C. to 40° C.
Plasminogen [4] = target: T1, Plasminogen; settings: clots treated with UK at 4° C.; heating to 28° C.

T1 sequence (P00747 20-810 limits assumed, species assumed): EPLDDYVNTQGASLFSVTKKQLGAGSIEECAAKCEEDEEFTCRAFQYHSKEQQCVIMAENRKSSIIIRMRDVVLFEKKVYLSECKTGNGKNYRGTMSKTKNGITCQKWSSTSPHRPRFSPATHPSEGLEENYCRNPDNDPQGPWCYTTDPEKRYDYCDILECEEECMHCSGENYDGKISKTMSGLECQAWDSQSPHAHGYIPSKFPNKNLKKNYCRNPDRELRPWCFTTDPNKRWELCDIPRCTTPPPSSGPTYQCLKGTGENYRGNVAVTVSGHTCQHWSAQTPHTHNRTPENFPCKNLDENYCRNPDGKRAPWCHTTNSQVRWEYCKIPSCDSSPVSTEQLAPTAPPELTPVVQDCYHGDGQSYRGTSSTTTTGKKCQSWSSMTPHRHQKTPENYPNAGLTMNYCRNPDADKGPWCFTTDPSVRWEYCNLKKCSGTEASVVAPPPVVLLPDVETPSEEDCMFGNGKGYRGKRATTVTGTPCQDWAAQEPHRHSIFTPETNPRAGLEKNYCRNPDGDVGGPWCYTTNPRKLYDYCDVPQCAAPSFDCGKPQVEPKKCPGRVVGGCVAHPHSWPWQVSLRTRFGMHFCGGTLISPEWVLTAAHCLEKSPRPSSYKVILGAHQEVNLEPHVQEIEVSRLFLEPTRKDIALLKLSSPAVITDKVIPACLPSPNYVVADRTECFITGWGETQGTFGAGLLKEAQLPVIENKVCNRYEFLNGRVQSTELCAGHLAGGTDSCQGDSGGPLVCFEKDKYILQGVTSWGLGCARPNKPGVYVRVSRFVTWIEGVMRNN

CCC(=O)OC1(c2ccccc2)CCN(C)CC1C (racemic) [alpha prodine, Alpha prodine]
affinity for the opiate receptor, one enantiomer versus the other (opiate receptor): (+) isomer has much greater affinity

CN1CCOC(c2ccccc2)c2ccccc2C1 (racemic) [nefopam]
antishivering activity (shivering threshold): prevent post-operative shivering

CCOC(=O)C1(c2ccccc2)CCN(C)CC1 [Meperidine]
decrease of shivering threshold relative to vasoconstriction threshold (shivering threshold): twice as much
effect on the gain and maximum intensity of shivering (shivering threshold): does not have much effect

CCC(=O)O[C@@]1(c2ccccc2)CCN(C)C[C@@H]1C [beta prodine]
affinity for the opiate receptor, one enantiomer versus the other (opiate receptor): (+) isomer has much greater affinity

CN1CC[C@]23c4c5ccc(O)c4O[C@H]2[C@@H](O)C=C[C@H]3[C@H]1C5 [morphine]
antishivering activity (shivering threshold): less or no antishivering activity

Oc1ccc2c3c1O[C@H]1[C@@H](O)CC[C@@]4(O)[C@@H](C2)N(CC2CCC2)CC[C@]314 [nalbuphine]
antishivering activity (shivering threshold): less or no antishivering activity

CC(C)=CCN1CCC2(C)c3cc(O)ccc3CC1C2C (stereo not shown) [pentazocine]
antishivering activity (shivering threshold): less or no antishivering activity

streptokinase [SK]
fibrinolytic activity (clots [1]): heating enhanced the fibrinolytic activity

tissue plasminogen activator [tPA]
fibrinolytic activity (Plasminogen [2]; 2.5 μg/ml tPA, cooling from normal body temperature to a hypothermic temperature): increased fibrinolytic activity
Plasminogen activation (Plasminogen [2]; clots treated with 2.5 μg/ml tPA, incubated at 37, 25, 10, 0 and −8° C.): relatively high at low temperatures
amount of clot lysis (clots [3]): correlated with temperature at all concentrations

urokinase [UK]
conversion of plasminogen to plasmin (fibrinolytic activity) (Plasminogen [4]): complete conversion of all plasminogen to plasmin
